{"source": "paper PMC12381781", "about": "“Structural and functional insights into the selective inhibition of mutant tau aggregation by purpurin and oleocanthal in frontotemporal dementia” (Protein Science : A Publication of the Protein Society, 2025)", "tested_on": "SY5Y-TauP301L-EGFP cells", "assay": "SH-SY5Y seeding assay, Triton X-100 fractionation and western blot", "type": "cell-based", "text": "SH‐SY5Y cells were transfected with the AAVS1 CAG rtTA3 TauP301L 2N4R‐EGFP plasmid using ScreenFect‐A‐plus Transfection Reagent (ScreenFect GmbH). AAVS1 CAG rtTA3 TauP301L 2N4R‐EGFP was a gift from Gerold Schmitt‐Ulms (Addgene plasmid #132393; http://n2t.net/addgene:132393; RRID: Addgene_132393). Stable cell lines expressing TauP301L 2N4R‐EGFP were generated via puromycin selection and are referred to as SY5Y‐TauP301L‐EGFP cells. Stable expression of the inducible TauP301L‐EGFP construct was confirmed by fluorescence microscopy and Western blot after doxycycline induction.\nSH‐SY5Y and SY5Y‐TauP301L‐EGFP cells were plated at 250,000 cells per well on Geltrex™‐coated culture plates (Gibco, # A1413201) and maintained in complete DMEM. After 24 h, the medium was replaced with CTS™ Neurobasal™ A Medium (Gibco, # A1371201) supplemented with 1× B‐27™ Supplement (ThermoFisher Scientific, #17504044), […] L‐glutamine, and 1% Penicillin–Streptomycin (complete neurobasal medium). Cells were differentiated by treatment with 10 μM all‐trans‐retinoic acid (RA; Sigma‐Aldrich, # R2625) for 72 h. The differentiation was continued in complete neurobasal media supplemented with 10 μM RA and 50 ng/mL recombinant human brain‐derived neurotrophic factor (BDNF) (R&D Systems, #248‐BDB‐250) for another 72 h.\nDifferentiated SY5Y‐TauP301L‐EGFP cells were pre‐treated with 0.5 μg/mL doxycycline (Sigma‐Aldrich, # D3447) for 24 h to induce the expression of TauP301L‐EGFP. Doxycycline was maintained in the cell culture media throughout the seeding assay. Cells were transduced with tau aggregation reaction products, standardized to 100 nM tau peptide. Transduction mixtures were prepared by combining the tau aggregation reaction products with TurboFect™ Transfection Reagent (Thermo Fisher Scientific Inc.) in Opti‐MEM™. The mixture was briefly vortexed and incubated at room temperature for 15 min before adding to cells. After 72 h, cells were processed for Triton X‐100 fractionation and western blot analysis, as described below.\nTriton X‐100 soluble and insoluble fractions were prepared as described previously with minor modifications (Annadurai, Malina, Malohlava, et al., [2022]). SY5Y‐TauP301L‐EGFP cells were harvested in 1× Tris‐buffered saline (TBS) containing 0.05% Triton X‐100, supplemented with protease and phosphatase inhibitors (Roche, #04693116001 and #04906837001). After centrifugation at 1000 × g for 10 min at 4°C, the supernatant was ultracentrifuged at 24,400 × g for 1 h at 4°C to separate Triton X‐100 soluble and insoluble fractions. The insoluble fraction was resuspended in radioimmunoprecipitation assay (RIPA) buffer (Thermo Fisher Scientific, #89901) with protease and phosphatase inhibitors for further analysis.\nEqual volumes of soluble and insoluble fractions were resolved by SDS‐PAGE and transferred onto nitrocellulose membranes using the Trans‐Blot Turbo Transfer System (Bio‐Rad). […]\nDensitometric analysis of insoluble tau bands was performed by first normalizing total tau signal intensities to GAPDH levels measured in the corresponding soluble fractions. […]", "key": {"[1]": {"conditions": "cells transduced with P301L peptide aggregation products formed with compound vs without, 72 h"}}, "data": [{"smiles": "C/C=C(/C=O)[C@@H](CC=O)CC(=O)OCCc1ccc(O)cc1", "note": "[OLC, oleocanthal]", "values": [{"measurement": "pSer262, T22, or total tau levels, soluble fractions", "setting": "P301L peptide aggregation products, across treatments", "value": "no significant differences"}, {"measurement": "T22 or pSer262 tau, soluble and insoluble fractions", "setting": "WT peptide aggregation products formed with compound vs control", "value": "no substantial differences"}, {"measurement": "oligomeric tau T22 level, insoluble fraction", "setting": "[1]", "value": "significantly reduced"}, {"measurement": "pSer262 tau level, insoluble fraction", "setting": "[1]", "value": "significantly reduced"}, {"measurement": "total tau level, insoluble fraction", "setting": "[1]", "value": "significantly reduced"}]}]}
